We go through seven molecules from patent US20240270821A1, “GIP/GLP1/GCG TRI-RECEPTOR AGONISTS AND USES THEREOF” (priority 2023, published 2024).

Starred links: 1 amine or outer side, 2 acyl side, 3 side chain; linkers in the order of their positions; H or OH if unused. Non-standard residues stand in square brackets, D forms with d. Groups on a side chain read outwards from the residue. No end group written: not given here. *: point of attachment. C20 diacid = O=C(O)CCCCCCCCCCCCCCCCCCC(=O)*; C18 diacid = O=C(O)CCCCCCCCCCCCCCCCC(=O)*; αMePhe(2-F) = C[C@](N)(Cc1ccccc1F)C(=O)O; γGlu = O=C(O)[C@H](CCC(=O)[*:2])N[*:1]; αMe4Pal = C[C@](N)(Cc1ccncc1)C(=O)O; αMeY = C[C@](N)(Cc1ccc(O)cc1)C(=O)O; 4Pal = N[C@@H](Cc1ccncc1)C(=O)O; αMeL = CC(C)C[C@](C)(N)C(=O)O; Orn = NCCC[C@H](N)C(=O)O; AEEA = NCCOCCOCC(=O)O; Aib = CC(C)(N)C(=O)O

Data set [1] deals with Intestinal organoid from Göttingen minipig jejunum tissue, 2D monolayer. Kind of data set: Cell based in vitro permeability (Papp) assay. The data set is classed as in vitro ADME. As for the experimental part:
Intestinal organoid from Göttingen minipig jejunum tissue and its 2D monolayer are generated using the protocol previously described ([…]-Thiele, […].; Wells, J. M., Optimized procedures for generating an enhanced, near physiological 2D culture system from porcine intestinal organoids. […] After 7 days of culture, organoids are dissociated into single cells by TrypLE (GIbco), and the single cell suspension is added in 24-well transparent transwell inserts (0.3 cm^2, Falcon, BD). […] Samples from the basal compartment are collected at 20 min in the presence of C10. Peptide concentrations in the apical and basal compartments are measured by LC/MS, and the apparent permeability coefficient (Papp) is calculated as previously described (Twarog, C.; Liu, K.; O'Brien, P. J.; Dawson, […] head-to-head Caco-2 assay comparison of the mechanisms of action of the intestinal permeation enhancers: SNAC and sodium caprate (C10).

The target in data set [2] is T1, hGIPR (Homo sapiens, UniProt P48546).
T1 sequence (P48546 22-466): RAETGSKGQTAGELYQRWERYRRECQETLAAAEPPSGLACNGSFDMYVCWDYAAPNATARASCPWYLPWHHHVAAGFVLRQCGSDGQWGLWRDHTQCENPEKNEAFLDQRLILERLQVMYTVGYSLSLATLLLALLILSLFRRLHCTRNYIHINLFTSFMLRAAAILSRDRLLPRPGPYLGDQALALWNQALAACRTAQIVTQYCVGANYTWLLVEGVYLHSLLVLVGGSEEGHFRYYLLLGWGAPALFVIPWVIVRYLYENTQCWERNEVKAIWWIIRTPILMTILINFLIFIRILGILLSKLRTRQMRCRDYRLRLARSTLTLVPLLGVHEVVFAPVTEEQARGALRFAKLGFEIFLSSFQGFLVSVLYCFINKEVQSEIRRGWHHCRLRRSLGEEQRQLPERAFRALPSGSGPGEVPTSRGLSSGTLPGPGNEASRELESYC
Briefly: Functional cAMP activity in the presence of 1% HSA. It is filed as cell-based. Conditions: read-out: cAMP Rel EC50, hGIPR.

Data set [3] deals with T2, hGLP-1R (Homo sapiens, UniProt P43220). Kind of data set: Functional cAMP activity in the presence of 1% HSA. The data set is classed as cell-based. The following applies: read-out: cAMP Rel EC50, hGLP-1R.
A further data set concerns the target human GcgR (Homo sapiens, UniProt P47871). Briefly: Functional cAMP activity in the presence of 1% HSA. The data set is classed as cell-based. The following applies: read-out: cAMP Rel EC50, hGcgR.
Data set [4] deals with T1, hGIPR. Kind of data set: Functional cAMP activation in the presence of 0.1% casein (no HSA). It is filed as cell-based. The following applies: read-out: Relative cAMP EC50, hGIPR.
For data set [5], the target named is T2, hGLP-1R. Described as above. Conditions: read-out: Relative cAMP EC50, hGLP-1R. It is filed as cell-based.
The next data set deals with hGcgR (Homo sapiens, UniProt P47871). The description is as above. It is filed as cell-based. Conditions: read-out: Relative cAMP EC50, hGcgR.
The target in data set [6] is T2, hGLP-1R. Briefly: cell-based or functional assay.
Data set [7] deals with T3, human GIP receptor (human) (UniProt P48546).
T3 sequence (looked up): T1 sequence (P48546 22-466)
Briefly: cell-based or functional assay.

Data set [8] deals with human GLP1-R (SNAP-GLP-1R expressed in HEK293 cells) (human) (UniProt P43220). Kind of data set: cell-based or functional assay.
Data set [9] has as its target human glucagon receptor (human) (UniProt P47871). Kind of data set: cell-based or functional assay.
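For Relative cAMP EC50, hGIPR in this document: intracellular cAMP rise after 30 min at 37 °C read by HTRF against a standard curve, scaled between buffer alone (0%) and top control ligand concentration (100%), four-parameter fit.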
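For Relative cAMP EC50, hGLP-1R in this document: intracellular cAMP rise after 30 min at 37 °C read by HTRF, normalized between buffer only (0%) and maximal control ligand (100%), four-parameter variable-slope fit.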
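For Relative cAMP EC50, hGcgR in this document: intracellular cAMP rise after 30 min at 37 °C, read by HTRF against a cAMP standard curve, scaled from buffer only (0%) to maximal control ligand response (100%).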

T2 sequence (P43220 24-463): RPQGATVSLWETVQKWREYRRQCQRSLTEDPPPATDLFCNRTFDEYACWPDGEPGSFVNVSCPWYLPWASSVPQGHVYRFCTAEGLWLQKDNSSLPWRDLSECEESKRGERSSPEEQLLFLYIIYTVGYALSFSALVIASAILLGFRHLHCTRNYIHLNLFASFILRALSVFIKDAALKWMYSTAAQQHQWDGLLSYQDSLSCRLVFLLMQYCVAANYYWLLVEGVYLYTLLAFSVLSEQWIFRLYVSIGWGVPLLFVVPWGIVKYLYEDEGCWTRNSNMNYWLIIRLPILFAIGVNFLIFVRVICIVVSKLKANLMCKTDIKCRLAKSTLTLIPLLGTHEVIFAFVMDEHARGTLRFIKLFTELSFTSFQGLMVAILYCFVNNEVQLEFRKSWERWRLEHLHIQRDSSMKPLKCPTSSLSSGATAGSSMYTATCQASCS
human GLP1-R (SNAP-GLP-1R expressed in HEK293 cells) (human), sequence (P43220 24-463): as above
human glucagon receptor (human), sequence (P47871 26-477): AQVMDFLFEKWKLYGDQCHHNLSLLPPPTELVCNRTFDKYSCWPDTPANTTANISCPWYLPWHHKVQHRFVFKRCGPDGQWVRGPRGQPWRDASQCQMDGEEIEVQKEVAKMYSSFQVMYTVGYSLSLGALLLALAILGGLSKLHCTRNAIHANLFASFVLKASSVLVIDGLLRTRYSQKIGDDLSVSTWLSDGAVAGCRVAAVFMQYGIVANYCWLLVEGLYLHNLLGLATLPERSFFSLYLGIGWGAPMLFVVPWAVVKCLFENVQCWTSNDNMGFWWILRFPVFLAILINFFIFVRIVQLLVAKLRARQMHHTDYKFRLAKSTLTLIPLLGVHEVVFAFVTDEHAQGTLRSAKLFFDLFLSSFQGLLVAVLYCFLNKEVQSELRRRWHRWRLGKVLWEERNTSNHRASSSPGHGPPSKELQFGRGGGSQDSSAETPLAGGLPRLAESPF
human GcgR, sequence (P47871 26-477): as above
hGcgR, sequence (P47871 26-477): as above

Turning to `CC[C@H](C)[C@H](NC(=O)[C@H](Cc1ccccc1)NC(=O)[C@H](C)NC(=O)C(C)(C)NC(=O)[C@H](CCC(N)=O)NC(=O)[C@H](C)NC(=O)[C@H](CCCCNC(=O)COCCOCCNC(=O)CC[C@H](NC(=O)CCCCCCCCCCCCCCCCC(=O)O)C(=O)O)NC(=O)[C@H](CCCCN)NC(=O)[C@H](CC(=O)O)NC(=O)[C@H](CC(C)C)NC(=O)[C@](C)(CC(C)C)NC(=O)[C@H](CCCN)NC(=O)[C@H](CO)NC(=O)[C@H](Cc1ccccc1)NC(=O)[C@H](CC(=O)O)NC(=O)[C@H](CO)NC(=O)[C@@H](NC(=O)[C@H](Cc1ccccc1)NC(=O)[C@@H](NC(=O)CNC(=O)[C@H](CCC(N)=O)NC(=O)C(C)(C)NC(=O)[C@@H](N)Cc1ccc(O)cc1)[C@@H](C)O)[C@@H](C)O)C(=O)N[C@@H](CCC(=O)O)C(=O)N[C@@H](Cc1c[nH]c2ccccc12)C(=O)N[C@@H](CC(C)C)C(=O)N[C@@H](CC(C)C)C(=O)N[C@@H](CCC(=O)O)C(=O)NCC(=O)NCC(=O)N1CCC[C@H]1C(=O)N[C@@H](CO)C(=O)N[C@@H](CO)C(=O)NCC(=O)N[C@@H](C)C(=O)N1CCC[C@H]1C(=O)N1C[C@H](O)C[C@H]1C(=O)N1CCC[C@H]1C(=O)N[C@@H](CO)C(=O)NCC(=O)N[C@@H](CCC(=O)O)C(N)=O` [Example 137], in data set [1], the “Relative Papp (Compared to internal standard)” value (from here on “Relative Papp”) is on record as 0.04.
For “H-Y[Aib]QGT[αMePhe(2-F)]TSD[4Pal]SILLDKK([γGlu-γGlu-C18 diacid])AQ[Aib]AFIE[αMeY]LEEGGPSSGAPPPSGSGE-NH2 [Example 666]”, the EC50 (in general, the concentration that produces a half-maximal response) on hGIPR [2] came to 1.39 nM; on hGLP-1R [3], 32.3 nM; on human GcgR, 224 nM; on hGIPR [4], 0.0203 nM; on hGLP-1R [5], 0.337 nM; at hGcgR, 2 nM. In [1], the “Relative Papp” value worked out at 0.85.
Take “H-Y[Aib]QGTFTSDFS[Orn][αMeL]LDKK([AEEA-γGlu-C18 diacid])AQ[Aib]AFIEYLLE[dA]GPSSGAPPPSGS [Example 212]”: the “Relative Papp” value in data set [1] was 0.22.
The same measure, in the same setting: with “H-Y[Aib]QGT[αMePhe(2-F)]TSD[4Pal]SILLD[Orn]K([AEEA-γGlu-C18 diacid])AQ[αMe4Pal]EFI[dE][αMeY]LLEGGPSSGAPPPSGS-NH2 (C-terminus assumed) [Example 670]” the figure was 0.46; with “H-Y[Aib]QGTFTSD[4Pal]SQ[αMeL]LD[Orn]K([Glu-γGlu-C18 diacid])AQ[αMe4Pal]AFIEYLIAGGPSSGAPPPSGSEE-NH2 [Example 1033]”, 0.14; with `CC[C@H](C)[C@H](NC(=O)[C@H](Cc1ccccc1)NC(=O)[C@H](C)NC(=O)C(C)(C)NC(=O)[C@H](CCC(N)=O)NC(=O)[C@H](C)NC(=O)[C@H](CCCCNC(=O)COCCOCCNC(=O)CC[C@H](NC(=O)CCCCCCCCCCCCCCCCC(=O)O)C(=O)O)NC(=O)[C@H](CCCCN)NC(=O)[C@H](CC(=O)O)NC(=O)[C@H](CC(C)C)NC(=O)[C@](C)(CC(C)C)NC(=O)[C@H](CCCN)NC(=O)[C@H](CO)NC(=O)[C@H](Cc1ccccc1)NC(=O)[C@H](CC(=O)O)NC(=O)[C@H](CO)NC(=O)[C@@H](NC(=O)[C@H](Cc1ccccc1)NC(=O)[C@@H](NC(=O)CNC(=O)[C@H](CCC(N)=O)NC(=O)C(C)(C)NC(=O)[C@@H](N)Cc1ccc(O)cc1)[C@@H](C)O)[C@@H](C)O)C(=O)N[C@@H](CCC(=O)O)C(=O)N[C@@H](Cc1ccc(O)cc1)C(=O)N[C@@H](CC(C)C)C(=O)N[C@@H](CC(C)C)C(=O)N[C@@H](CCC(=O)O)C(=O)N[C@H](C)C(=O)NCC(=O)N1CCC[C@H]1C(=O)N[C@@H](CO)C(=O)N[C@@H](CO)C(=O)NCC(=O)N[C@@H](C)C(=O)N1CCC[C@H]1C(=O)N1CCC[C@H]1C(=O)N1CCC[C@H]1C(=O)N[C@@H](CO)C(=O)NCC(=O)N[C@H](C(=O)O)[C@@H](C)O` [Example 213], 0.26.

B1: Example 19 (peptide)
chain: Y[Aib]QGTFTSDFSK[αMeL]LDKK([AEEA-γGlu-C20 diacid])AQQAFIEYLLA[Aib]GPSSGEPPPSEG-NH2
Take B1: in the data set with hGLP-1R [6], the Relative cAMP EC50 stood at 3.96 nM and the cAMP Rel EC50 (in the presence of 1% HSA) was determined as 1310 nM. In addition, in data set [7], the Relative cAMP EC50 worked out at 0.228 nM and the cAMP Rel EC50 (in the presence of 1% HSA) amounted to 66.2 nM. In data set [8], the GLP1R Internalization EC50 turned out to be 52.4 nM and the Internalization % TOP was 72.6%. In addition, in [9], the Relative cAMP EC50 turned out to be 2.35 nM and the cAMP Rel EC50 (in the presence of 1% HSA) stood at 1010 nM.
